# Assay results published in publication PMC11876601 (Molecular Systems Biology, 2025).
# Values joined by “and” are separate entries in the source; they are usually repeats but may differ in a detail not shown here. Equal values may be shown once. Read-outs that look alike come from different tables or passages of the source.
# System: AsPC-1 cells
# Test: Cell proliferation assay, chemodrug + ATR inhibitor (Incucyte confluence, 72 h);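 note: underlying read-out for every value is AsPC-1 confluence after 72 h incubation at 37 °C and 5% CO2, divided by that well's starting confluence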
# Details: for Curve bottom / Curve slope / Curve top: fitted dose-response curve; for Curve bottom / Curve top: relative response; for Raw data (confluence at 72 h/confluence at 0 h): Berzosertib experiment; for EC50: Homo sapiens
# [1] = AsPC1, Experiment GEM+ATRi_dose1
# [2] = AsPC1, Experiment GEM+ATRi_dose2
# [3] = AsPC1, Experiment GEM+ATRi_dose3
smiles,measurement,setting,value
CNCc1ccc(-c2cc(-c3nc(-c4ccc(S(=O)(=O)C(C)C)cc4)cnc3N)on2)cc1 [Berzosertib],Curve bottom,"AsPC1, Experiment ATRi (ATR inhibitor alone)",1.08 and 1.02 and 1.03
same,Curve slope,[1],1.49 and 1.39 and 2.10
same,Curve bottom,[1],1.02 and 0.99 and 0.96
same,Curve top,[1],0.52 and 0.41 and 0.43
same,Curve bottom,[2],1.02 and 0.89 and 0.87
same,Curve top,[2],0.47 and 0.41
same,Curve slope,[3],1.48 and 2.60 and 1.95
same,Curve bottom,[3],1.02 and 0.71 and 0.76
same,Curve top,[3],0.44 and 0.38 and 0.37
same,Response,"AsPC1, GEM 100 nM + ATRi 30 nM",1.96
same,Response,"AsPC1, GEM 300 nM + ATRi 30 nM",1.76
same,Response,"AsPC1, GEM 1000 nM + ATRi 30 nM",1.64
same,Response,"AsPC1, GEM 3000 nM + ATRi 30 nM",1.69
same,Raw data (confluence at 72 h/confluence at 0 h),"replicate R2, titrated drug dose 100 nM",1.63
same,Raw data (confluence at 72 h/confluence at 0 h),"replicate R2, titrated drug dose 300 nM",3.32
same,Raw data (confluence at 72 h/confluence at 0 h),"replicate R2, titrated drug dose 1000 nM",1.81
same,Raw data (confluence at 72 h/confluence at 0 h),"replicate R2, titrated drug dose 3000 nM",0.95
same,Raw data (confluence at 72 h/confluence at 0 h),"replicate R2, titrated drug dose 10000 nM",1.02
same,Raw data (confluence at 72 h/confluence at 0 h),"replicate R3, titrated drug dose 3 nM",3.53
same,Raw data (confluence at 72 h/confluence at 0 h),"replicate R3, titrated drug dose 10 nM",3.58
same,Raw data (confluence at 72 h/confluence at 0 h),"replicate R3, titrated drug dose 30 nM",3.44
same,Raw data (confluence at 72 h/confluence at 0 h),"replicate R3, titrated drug dose 100 nM",1.82
same,Raw data (confluence at 72 h/confluence at 0 h),"replicate R3, titrated drug dose 300 nM",3.31
same,Raw data (confluence at 72 h/confluence at 0 h),"replicate R3, titrated drug dose 1000 nM",1.82
same,Raw data (confluence at 72 h/confluence at 0 h),"replicate R3, titrated drug dose 3000 nM",0.98
same,Raw data (confluence at 72 h/confluence at 0 h),"replicate R3, titrated drug dose 10000 nM",1.08
same,Raw data (confluence at 72 h/confluence at 0 h),"replicate R1, titrated drug dose 3 nM",3.58
same,Raw data (confluence at 72 h/confluence at 0 h),"replicate R1, titrated drug dose 10 nM",3.42
same,Raw data (confluence at 72 h/confluence at 0 h),"replicate R1, titrated drug dose 30 nM",3.67
same,Raw data (confluence at 72 h/confluence at 0 h),"replicate R1, titrated drug dose 100 nM",3.44
same,Raw data (confluence at 72 h/confluence at 0 h),"replicate R1, titrated drug dose 300 nM",3.48
same,Raw data (confluence at 72 h/confluence at 0 h),"replicate R1, titrated drug dose 1000 nM",1.39
same,Raw data (confluence at 72 h/confluence at 0 h),"replicate R1, titrated drug dose 3000 nM",1.11
same,Raw data (confluence at 72 h/confluence at 0 h),"replicate R1, titrated drug dose 10000 nM",1.24
same,Raw data (confluence at 72 h/confluence at 0 h),"replicate R2, titrated drug dose 3 nM",3.47
same,Raw data (confluence at 72 h/confluence at 0 h),"replicate R2, titrated drug dose 10 nM",3.62
same,Raw data (confluence at 72 h/confluence at 0 h),"replicate R2, titrated drug dose 30 nM",3.68
same,Response,"GEM 0 nM, ATRi 30 nM",3.26 and 3.50 and 3.35
same,Response,"GEM 0 nM, ATRi 300 nM",3.38 and 2.28 and 2.67
same,Response,GEM 1 nM + ATRi 30 nM,3.40 and 3.47 and 3.32
same,Response,GEM 1 nM + ATRi 100 nM,3.25 and 2.45 and 2.30
same,Response,GEM 1 nM + ATRi 300 nM,3.17 and 2.72 and 2.68
same,Response,GEM 3 nM + ATRi 30 nM,3.21 and 3.37 and 3.20
same,Response,GEM 3 nM + ATRi 100 nM,3.16 and 3.42 and 3.23
same,Response,GEM 3 nM + ATRi 300 nM,3.33 and 2.50 and 2.49
same,Response,GEM 10 nM + ATRi 30 nM,3.02 and 3.24 and 3.22
same,Response,GEM 10 nM + ATRi 100 nM,2.95 and 3.25 and 2.97
same,Response,GEM 10 nM + ATRi 300 nM,2.69 and 2.35 and 2.32
same,Response,GEM 30 nM + ATRi 30 nM,2.26 and 2.69 and 2.57
same,Response,GEM 30 nM + ATRi 100 nM,2.27 and 2.08 and 1.96
same,Response,GEM 30 nM + ATRi 300 nM,2.06 and 1.65 and 1.60
same,Response,GEM 100 nM + ATRi 30 nM,1.68
same,Response,GEM 100 nM + ATRi 100 nM,1.81 and 1.49 and 1.48
same,Response,GEM 100 nM + ATRi 300 nM,1.53 and 1.40 and 1.31
same,Response,GEM 300 nM + ATRi 30 nM,1.65 and 1.49
same,Response,GEM 300 nM + ATRi 100 nM,1.60 and 1.52 and 1.44
same,Response,GEM 300 nM + ATRi 300 nM,1.48 and 1.38 and 1.24
same,Response,GEM 1000 nM + ATRi 30 nM,1.43 and 1.48
same,Response,GEM 1000 nM + ATRi 100 nM,1.53 and 1.41 and 1.39
same,Response,GEM 1000 nM + ATRi 300 nM,1.41 and 1.36 and 1.30
same,Response,GEM 3000 nM + ATRi 30 nM,1.40 and 1.48
same,Response,GEM 3000 nM + ATRi 100 nM,1.58 and 1.38 and 1.33
same,Response,GEM 3000 nM + ATRi 300 nM,1.46 and 1.27
same,EC50,"ASPC1, 72 h, AsPC1, Experiment ATRi (ATR inhibitor alone), single replicates R1-R3",647 nM
same,EC50,"ASPC1, 72 h, read-out: EC50 (cell growth), ATR inhibitor as single agent",766 nM
same,EC50,"ASPC1, 72 h, read-out: EC50 mean [nM], AsPC1, Experiment ATRi (ATR inhibitor alone), mean of replicates",719 nM
same,EC50,"ASPC1, 72 h, read-out: pEC50, AsPC1 (converted), Experiment ATRi (ATR inhibitor alone), single replicates R1-R3",646 nM
same,EC50,"ASPC1, read-out: EC50 mean [nM], AsPC1, Experiment ATRi (ATR inhibitor alone), mean of replicates",719 nM
